Test results reported in article PMC9967275, “Screening the Pathogen Box to Discover and Characterize New Cruzain and TbrCatL Inhibitors” (Pathogens, 2023).
Entries after “also recorded” stand apart in the source; their conditions may differ. Like-named read-outs stand apart in the source and are kept apart here.

What was measured:
[1] = target: T1, cruzain (Trypanosoma cruzi, UniProt P25779); assay: Mechanism of inhibition against cruzain (Michaelis-Menten, Lineweaver-Burk); format: biochemical; parameters: Cruzain is the truncated, recombinant-expressed cruzipain 1; Brian Shoichet (University of California San Francisco)
T1 sequence (P25779 123-337 limits assumed): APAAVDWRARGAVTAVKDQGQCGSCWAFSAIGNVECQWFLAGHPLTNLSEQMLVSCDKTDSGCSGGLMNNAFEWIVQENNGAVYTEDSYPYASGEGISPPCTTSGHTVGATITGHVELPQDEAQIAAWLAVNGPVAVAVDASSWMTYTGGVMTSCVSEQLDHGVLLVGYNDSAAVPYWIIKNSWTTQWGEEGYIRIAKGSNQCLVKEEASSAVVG
Description: Non-linear regression to Michaelis-Menten models and linear regression for the Lineweaver-Burk plot were performed. Ki was estimated by both methods. The effect of the inhibitor concentration on the Km app was evaluated using the General Linear F-test.

[2] = test system: porphobilinogen deaminase; parameters: method as in earlier work; conditions: cited from earlier work
[3] = parameters: method as in earlier work; conditions: cited from earlier work
[4] = test system: SARS-CoV-2 MPro; parameters: method as in PMID 33655614; conditions: read-out: IC50 against MPro; cited from earlier work
[5] = target: T2, TbrCatL (Trypanosoma brucei rhodesiense, UniProt Q95PM0); assay: TbrCatL enzymatic inhibition assay (cleavage of fluorogenic substrate Z-FR-AMC); format: biochemical
T2 construct: Conor Caffrey (University of California San Diego)
T2 sequence (Q95PM0 entry or part of it): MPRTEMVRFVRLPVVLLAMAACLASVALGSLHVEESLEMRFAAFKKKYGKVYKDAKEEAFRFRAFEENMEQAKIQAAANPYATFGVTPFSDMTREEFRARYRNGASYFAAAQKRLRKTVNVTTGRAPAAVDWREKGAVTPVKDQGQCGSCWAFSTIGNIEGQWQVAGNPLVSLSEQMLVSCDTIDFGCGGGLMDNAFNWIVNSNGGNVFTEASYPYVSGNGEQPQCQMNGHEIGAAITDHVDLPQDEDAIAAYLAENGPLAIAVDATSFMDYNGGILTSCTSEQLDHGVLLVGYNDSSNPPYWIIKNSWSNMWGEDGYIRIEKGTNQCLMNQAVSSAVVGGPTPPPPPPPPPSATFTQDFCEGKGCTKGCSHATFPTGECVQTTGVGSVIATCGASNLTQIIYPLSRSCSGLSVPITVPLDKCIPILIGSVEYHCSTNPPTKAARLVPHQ
How it was run: (§1)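 Recombinant enzymes assayed by Z-Phe-Arg-AMC cleavage at 25 °C, fluorescence 340/440 nm over 5–7 min, with 10 min or no enzyme–compound preincubation.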

[6] = test system: T. cruzi; conditions: cited from earlier work
[7] = target: T1, cruzain; assay: biochemical
How it was run: as §1

[8] = target: T1, cruzain; assay: Aggregation counter-assays: cruzain inhibition at varying Triton X-100 and after pre-incubation with BSA; format: biochemical; parameters: Cruzain is the truncated, recombinant-expressed cruzipain 1; Brian Shoichet (University of California San Francisco); conditions: for % Cruzain Inhibition (Mean ± SEM) 0.001% Triton + BSA 1 mg/mL / % Cruzain Inhibition (Mean ± SEM) 0.001% Triton X-100 / % Cruzain Inhibition (Mean ± SEM) 0.01% Triton X-100 / % Cruzain Inhibition (Mean ± SEM) 0.1% Triton X-100: compound µM: MMV687246 12.5, MMV687812 3.125, MMV688179 1.563, MMV688362 3.125, MMV688466 6.25, MMV690028 25
Description: To assess the effects of the Triton X-100 concentration on cruzain inhibition, assays were performed using 0.001%, 0.01%, and 0.1% Triton X-100. To evaluate the impact of pre-incubation with bovine serum albumin (BSA), 50 µL of a solution of the compound in the assay buffer containing 0.001% of Triton X-100 was incubated with 4 mg/mL of BSA (Sigma-Aldrich) for 10′ in a 96-well plate. Next, 50 µL of a solution containing circa 2 nM of cruzain in the same buffer was added to each well and incubated for another 10′. Finally, 100 µL of a solution of 5 µM Z-FR-AMC in the same buffer was added to each well and the fluorescence was immediately read. The final compound concentration varies and was selected to be near the compound IC50.
To investigate if inhibition was due to colloidal aggregation, a common cause of unspecific enzyme inhibition in in vitro assays, we employed two well-established experiments: the comparison of percentages of inhibition at varying Triton X-100 concentrations and the effect of compound pre-incubation with BSA on the percentage of inhibition. […] Pre-incubating a compound that aggregates with BSA saturates the protein-binding capacity of the aggregate.

[9] = test system: DNA minor groove; parameters: method as in PMID 18247550, PMID 22497334; conditions: SPR, ITC, CD, and Tm experiments; cited from earlier work
[10] = test system: ferrochelatase; parameters: method as in earlier work; conditions: cited from earlier work
[11] = IC50 (µM ± SEM %) TbrCatL 0′, no pre-incubation
[12] = IC50 (µM ± SEM %) TbrCatL 10′ inc, 10′ pre-incubation
[13] = read-out: Inhibition at 5 µM (Mean ± SEM %) TbrCatL 0′
[14] = read-out: Inhibition at 5 µM (Mean ± SEM %) TbrCatL 10′ inc
[15] = read-out: Inhibition at 100 µM (Mean ± SEM %) TbrCatL 0′
[16] = read-out: Inhibition at 100 µM (Mean ± SEM %) TbrCatL 10′ inc
[17] = read-out: TbrCatL 0’ Inhibition
[18] = read-out: TbrCatL 10’ Inhibition
[19] = IC50 (µM ± SEM %) Cruzain 0′, no pre-incubation
[20] = IC50 (µM ± SEM %) Cruzain 10′ inc, 10′ pre-incubation
[21] = read-out: Cruzain 0’ Inhibition, 0’ (pre-incubation time), sheet "Screening results"
[22] = read-out: Cruzain 10’ Inhibition, 10’ (pre-incubation time), sheet "Screening results"
[23] = read-out: Inhibition at 5 µM (Mean ± SEM %) Cruzain 0′, 5 µM, no pre-incubation, initial screening
[24] = read-out: Inhibition at 5 µM (Mean ± SEM %) Cruzain 10′ inc, 5 µM, 10′ pre-incubation, initial screening
[25] = read-out: Inhibition at 100 µM (Mean ± SEM %) Cruzain 0′, 100 µM, no pre-incubation, solid samples
[26] = read-out: Inhibition at 100 µM (Mean ± SEM %) Cruzain 10′ inc, 100 µM, 10′ pre-incubation, solid samples
[27] = read-out: Inhibition of cruzain or TbrCatL (either enzyme) in the initial screening, 5 µM, either cruzain or TbrCatL, with or without pre-incubation

Structure (SMILES) | IC50 [5, 11] [µM] | IC50 [5, 12] [µM] | inhibition at 5 µM [5, 13] [%] | inhibition at 5 µM [5, 14] [%] | inhibition at 100 µM [5, 15] [%] | inhibition at 100 µM [5, 16] [%] | inhibition at 5 µM [5, 17] [%] | inhibition at 5 µM [5, 18] [%] | IC50 [7, 19] [µM] | IC50 [7, 20] [µM] | inhibition at 5 µM [7, 21] [%] | inhibition at 5 µM [7, 22] [%] | inhibition at 5 µM [7, 23] [%] | inhibition at 5 µM [7, 24] [%] | inhibition at 100 µM [7, 25] [%] | inhibition at 100 µM [7, 26] [%] | inhibition at 5 µM [7, 27] [%] | % Cruzain Inhibition (Mean ± SEM) 0.001% Triton + BSA 1 mg/mL [8] [%] | % Cruzain Inhibition (Mean ± SEM) 0.001% Triton X-100 [8] [%] | % Cruzain Inhibition (Mean ± SEM) 0.01% Triton X-100 [8] [%] | further results
N=C(N)Nc1ccc(-c2ccc(-c3ccc(NC(=N)N)cc3Cl)o2)c(Cl)c1 [MMV688179] | 4 ± 1 | 5 ± 2 | 50 ± 3 | 58 ± 25 | 100 | 100 | 50 | 58 | 0.46 ± 0.03 | 0.53 ± 0.03 | 102 | 110 | 98 ± 2 | 100 | 100 | 100 | ≥ 60 | 89 ± 8 | 85 ± 6 | 80 ± 1 | Mechanism of inhibition of cruzain [1]: competitive inhibitor; also recorded: competition with the substrate; Ki ([1]; competitive model, read-out: Ki against cruzain from non-linear regression of the Michaelis-Menten competitive model): 165 ± 63 nM; Ki ([1]; linear regression of Kmapp, read-out: Ki against cruzain from the linear regression of Kmapp): 206 nM; Inhibition of porphobilinogen deaminase [2]: lack of MMV688179 inhibition; CC50 [3]: 11600 nM; IC50 [4]: 1600 nM; IC50 against TbrCatL relative to cruzain ([5]; TbrCatL vs cruzain): 10 fold; EC50 ([6]; read-out: EC50 against T. cruzi): 27000 nM; % Cruzain Inhibition (Mean ± SEM) 0.1% Triton X-100 [8]: 82 ± 13%; Colloidal aggregation assessment ([8]; near the IC50): do not suggest aggregation properties near the IC50; Binding to the DNA minor groove [9]: known to bind to the DNA minor groove; Inhibition of ferrochelatase [10]: lack of MMV688179 inhibition
COc1cc(C2=NCCN2)cc2cc(-c3ccc(C4=NCCN4)cc3)oc12 [MMV688362] | 2.9 ± 0.8 | 2.3 ± 0.1 | 9 ± 1 | 43 ± 4 | 100 | 100 | 9 | 43 | 4.2 ± 0.6 | 2.35 ± 0.02 | 19 | 27 | 19 ± 1 | 27 ± 3 | 100 | 100 | ≥ 40 | 29 ± 3 | 59 ± 2 | 41 ± 2 | EC50 ([6]; ref Pathogen Box data, read-out: EC50 against T. cruzi reported on PB): 13000 nM; IC50 ([7]; IC50 against cruzain and TbrCatL (summary), cruzain and TbrCatL, with or without pre-incubation): 2 to 4 µM; % Cruzain Inhibition (Mean ± SEM) 0.1% Triton X-100 [8]: 25 ± 2%; Effect of pre-incubation of the compound with BSA on cruzain inhibition ([8]; near the IC50): some reduction in the inhibition; Binding to the DNA minor groove [9]: known to bind to the DNA minor groove
